# Counter-ions that a name gives are not always drawn. Like-named read-outs stand apart in the source and are kept apart here.
# What was measured:
# [1] = tested on: MOLM16 cells; assay: Growth inhibition, MTS assay, MOLM16; format: cell-based, Human; settings: MTS cell viability, read-out: MOLM 16 ED50
# From the text: (§1) The following cell lines, were obtained and used in tests as outlined below: • Human myelomonocytic, biphenotypic leukemia MV4-11 cells (harboring a Flt3-ITD mutation); • Human Acute Myeloid Leukemia MOLM16 cells; • Human Acute Myeloid Leukemia MOLM13 cells (harboring a Flt3-ITD mutation); • Human Myeloid Leukemia KG-1 cells; • Human erythroleukemia HEL92 cells; • Human mantle cell lymphoma Jeko-1 cells; • Human hepatocellular carcinoma HepG2 cells; and • Human colon adenocarcinoma SW-480 cells.
# (§2) The assays were carried out according to the following protocol, which is described as an example for the MV4-11 cells:
# (§3) Ten thousand MV4-11 cells were inoculated into each well of a 96-well microplate (manufactured by Corning Corp.) using Iscove's MDM medium (culture medium) containing 10% fetal calf serum (FCS). The same day, a dimethyl sulfoxide (DMSO) solution of each test compound prepared in a concentration of 10 mmol/L was further diluted with DMSO to the desired concentrations (0.1, 0.5, 1, 2.5, 5 and 10 micromol/L), and the diluted solution was added to each well. The individual wells were further cultured in 5% carbon dioxide at 37° C. for 72 hours. […] Briefly, 10 μl MTS (3-(4,5-Dimethyl-2-thiazolyl)-5-(carboxymethoxyphenyl)-2-(4-sulfophenyl)-2H-tetrazolium was added to each well, and culturing was performed in 5% carbon dioxide at 37° C. for 2 hours. After this incubation and using a microplate spectrophotometer (Synergy 2 multi-mode microplate reader (BioTek)), the absorbance of each well was measured at 490 nm. The value for cells not incubated with a test compound was designated as 100%. By comparing these values with the absorbance difference obtained at the well in which each test compound was added, the cell viability (% viability) after treatment with the test compound was calculated.
# [2] = target: Pim-1 (Homo sapiens (Human), UniProt P11309); assay: ADP-Glo Kinase Assay, Pim-1; format: biochemical; settings: 1 μM compound; for inhibition at 1 µM: read-out: Pim-1 % INH (1 μM)
# Chain of Pim-1 (P11309 whole entry): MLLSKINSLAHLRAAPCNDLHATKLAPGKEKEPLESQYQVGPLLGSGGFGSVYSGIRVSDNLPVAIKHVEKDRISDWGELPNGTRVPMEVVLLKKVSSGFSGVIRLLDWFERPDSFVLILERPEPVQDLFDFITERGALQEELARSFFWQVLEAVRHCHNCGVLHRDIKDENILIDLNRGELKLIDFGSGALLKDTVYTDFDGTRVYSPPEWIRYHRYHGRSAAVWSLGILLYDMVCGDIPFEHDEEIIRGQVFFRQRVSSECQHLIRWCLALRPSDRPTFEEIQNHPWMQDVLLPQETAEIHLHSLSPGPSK
# How it was run: (§4)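 ADP-Glo luminescent ADP detection of human kinase activity in 5 mM MOPS pH 7.5, 5 mM MgCl2, 0.4 mM EDTA, 1.5 mM DTT. ATP at each kinase's apparent Km; compounds diluted to 1000 nM in assay buffer. Percent inhibition from normalised luminescence.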
# [3] = target: FLT3wt (Homo sapiens (Human), UniProt P36888); assay: ADP-Glo Kinase Assay, Flt3 wt; format: biochemical; settings: 1 μM compound; for inhibition at 1 µM: read-out: Flt3wt % INH (1 μM)
# Chain of FLT3wt (P36888 27-993): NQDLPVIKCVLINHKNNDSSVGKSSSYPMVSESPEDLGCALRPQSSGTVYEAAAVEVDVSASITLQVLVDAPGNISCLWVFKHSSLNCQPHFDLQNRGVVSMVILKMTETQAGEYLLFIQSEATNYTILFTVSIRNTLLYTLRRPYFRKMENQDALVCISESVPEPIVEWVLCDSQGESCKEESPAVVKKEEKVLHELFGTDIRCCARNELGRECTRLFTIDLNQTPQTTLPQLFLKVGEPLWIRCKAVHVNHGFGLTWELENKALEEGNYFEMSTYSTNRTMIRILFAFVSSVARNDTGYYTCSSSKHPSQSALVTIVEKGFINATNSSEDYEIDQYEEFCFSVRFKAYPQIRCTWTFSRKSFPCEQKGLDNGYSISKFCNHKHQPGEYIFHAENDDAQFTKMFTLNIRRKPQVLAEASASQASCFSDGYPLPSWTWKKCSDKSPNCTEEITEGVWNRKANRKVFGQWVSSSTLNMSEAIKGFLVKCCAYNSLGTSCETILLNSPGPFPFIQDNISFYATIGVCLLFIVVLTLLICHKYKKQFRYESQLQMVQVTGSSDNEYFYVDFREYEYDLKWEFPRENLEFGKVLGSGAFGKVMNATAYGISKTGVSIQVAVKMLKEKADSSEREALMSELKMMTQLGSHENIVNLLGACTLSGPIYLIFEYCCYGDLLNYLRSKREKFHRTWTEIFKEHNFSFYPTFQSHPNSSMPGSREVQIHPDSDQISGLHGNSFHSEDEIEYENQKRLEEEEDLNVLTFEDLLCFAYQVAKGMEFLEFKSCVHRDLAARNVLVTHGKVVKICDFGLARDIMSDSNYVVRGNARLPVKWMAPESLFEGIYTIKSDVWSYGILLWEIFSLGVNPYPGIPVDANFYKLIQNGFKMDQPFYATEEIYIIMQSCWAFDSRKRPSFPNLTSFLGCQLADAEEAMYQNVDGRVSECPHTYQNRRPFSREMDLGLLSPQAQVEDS
# How it was run: as §4
# [4] = target: DYRK1 (Homo sapiens (Human), UniProt Q13627); assay: ADP-Glo Kinase Assay, DYRK1; format: biochemical; settings: 1 μM compound; for inhibition at 1 µM: read-out: DYRK1A % INH (1 μM)
# How it was run: as §4
# [5] = tested on: HEL92 cells; assay: Growth inhibition, MTS assay, HEL92; format: cell-based, Human; settings: MTS cell viability, read-out: HEL92 ED50
# [6] = tested on: MV4-11 cells; assay: Growth inhibition, MTS assay, MV4-11; format: cell-based, Human; settings: MTS cell viability, read-out: MV4-11 ED50
# [7] = tested on: HepG2 cells; assay: Growth inhibition, MTS assay, HepG2; format: cell-based, Human; settings: MTS cell viability, read-out: HepG2 ED50
# [8] = target: CDK2/E (Homo sapiens (Human), UniProt P24941); assay: ADP-Glo Kinase Assay, CDK2/E; format: biochemical; settings: 1 μM compound; for inhibition at 1 µM: read-out: CDK2/E % INH (1 μM)
# How it was run: as §4
# [9] = target: hERG potassium channel (Homo sapiens (Human), UniProt Q12809); assay: hERG automated patch clamp assay (QPatch HT)
# Chain of hERG potassium channel (Q12809 whole entry): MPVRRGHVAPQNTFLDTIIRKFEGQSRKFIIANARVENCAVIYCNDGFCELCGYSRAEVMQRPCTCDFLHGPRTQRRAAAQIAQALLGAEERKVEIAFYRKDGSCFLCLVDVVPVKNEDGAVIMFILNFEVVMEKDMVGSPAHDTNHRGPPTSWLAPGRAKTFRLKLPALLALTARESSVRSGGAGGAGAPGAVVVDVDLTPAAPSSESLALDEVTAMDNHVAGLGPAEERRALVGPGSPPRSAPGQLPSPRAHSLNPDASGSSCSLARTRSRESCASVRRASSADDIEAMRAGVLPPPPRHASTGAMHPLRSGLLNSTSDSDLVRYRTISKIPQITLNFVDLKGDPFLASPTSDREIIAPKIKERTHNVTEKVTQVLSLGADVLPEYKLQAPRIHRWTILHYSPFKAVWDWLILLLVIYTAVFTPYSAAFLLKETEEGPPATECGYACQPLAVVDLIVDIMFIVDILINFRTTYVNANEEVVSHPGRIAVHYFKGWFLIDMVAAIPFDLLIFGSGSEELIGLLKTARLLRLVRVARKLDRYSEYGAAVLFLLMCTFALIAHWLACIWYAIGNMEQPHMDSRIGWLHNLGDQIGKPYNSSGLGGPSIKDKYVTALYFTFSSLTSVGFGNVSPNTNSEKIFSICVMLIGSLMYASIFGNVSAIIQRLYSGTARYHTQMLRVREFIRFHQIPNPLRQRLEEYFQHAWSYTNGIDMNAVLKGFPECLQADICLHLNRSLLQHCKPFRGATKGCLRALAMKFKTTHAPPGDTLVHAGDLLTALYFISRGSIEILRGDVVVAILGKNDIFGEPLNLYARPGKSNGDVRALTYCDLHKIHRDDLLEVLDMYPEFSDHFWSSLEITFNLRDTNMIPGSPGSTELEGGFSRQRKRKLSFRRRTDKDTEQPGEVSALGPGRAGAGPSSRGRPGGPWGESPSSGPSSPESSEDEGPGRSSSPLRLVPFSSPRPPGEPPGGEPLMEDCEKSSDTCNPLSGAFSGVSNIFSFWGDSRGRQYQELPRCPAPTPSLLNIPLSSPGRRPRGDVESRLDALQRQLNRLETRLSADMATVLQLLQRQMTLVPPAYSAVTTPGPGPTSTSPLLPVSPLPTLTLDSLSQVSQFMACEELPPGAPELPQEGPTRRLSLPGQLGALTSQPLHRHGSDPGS
# Protocol: The hERG (human ether-A-go-go-related gene) channel corresponds to an important anti-target for potential new drugs since its inhibition may lead to sudden death. In order to establish whether the compounds of the present invention act on hERG, the following experiment was carried out.
# The in vitro effects of the compounds indicated in Table 5 on the hERG potassium channel current (a surrogate for Iκr, the rapidly activating, delayed rectifier cardiac potassium current) expressed in mammalian cells were evaluated at room temperature using the QPatch HT® (Sophion Bioscience A/S, Denmark), an automatic parallel patch clamp system. Each compound indicated in Table 5 was evaluated at 0.1, 1, 3, 10 and 30 μM with each concentration tested in a minimum of two cells (n≥2). The duration of exposure to each compound concentration was 3 minutes.
# [10] = tested on: SW-480 cells; assay: Growth inhibition, MTS assay, SW-480; format: cell-based, Human; settings: 72 hours, MTS cell viability, read-out: SW-480 ED50
# [11] = target: Pim-3 (Homo sapiens (Human), UniProt Q86V86); assay: ADP-Glo Kinase Assay, Pim-3; format: biochemical; settings: 1 μM compound; for inhibition at 1 µM: read-out: Pim-3 % INH (1 μM)
# How it was run: as §4
# [12] = target: Pim-2 (Homo sapiens (Human), UniProt Q9P1W9); assay: ADP-Glo Kinase Assay, Pim-2; format: biochemical; settings: 1 μM compound; for inhibition at 1 µM: read-out: Pim-2 % INH (1 μM)
# Chain of Pim-2 (Q9P1W9 whole entry): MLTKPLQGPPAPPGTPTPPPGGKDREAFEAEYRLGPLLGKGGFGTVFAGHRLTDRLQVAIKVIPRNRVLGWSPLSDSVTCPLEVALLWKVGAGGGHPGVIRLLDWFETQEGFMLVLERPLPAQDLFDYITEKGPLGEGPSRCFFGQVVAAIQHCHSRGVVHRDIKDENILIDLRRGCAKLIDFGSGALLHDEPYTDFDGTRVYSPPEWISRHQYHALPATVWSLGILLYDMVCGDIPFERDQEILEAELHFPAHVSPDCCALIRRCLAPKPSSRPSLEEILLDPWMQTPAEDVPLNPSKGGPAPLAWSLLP
# How it was run: as §4
# [13] = tested on: Jeko-1 cells; assay: Growth inhibition, MTS assay, Jeko-1; format: cell-based, Human; settings: 72 hours, MTS cell viability, read-out: Jeko-1 ED50
# From the text: as §1, §2, §3
# [14] = tested on: MV4-11 xenograft; assay: MV4-11 xenograft in immunocompromised mice; format: in vivo; settings: MV4-11 xenograft, oral
# From the text: Several compounds of the present invention have been studied in a xenograft in mice, an in vivo tumor transplantation model used to investigate the factors involved in malignant transformation, invasion and metastasis, as well as to examine response to therapy. For the purpose of acceptance of donor leukemic cells (MV4-11 or MOLM16 cells), immunocompromised mice were used, namely particularly severely compromised immunodeficient mice (NOD/scid, SCID/beige). When tumors developed size of approx. 50-200 mm^3, the compounds as indicated below in Tables 3 and 3a were administered orally every day for 2-3 weeks, in once a day (QD) or twice a day (BID) schedule. During the course of the experiment, the mice were monitored and the following two parameters were measured: the tumor growth inhibition (TGI) factor as a measure of therapeutic efficacy and the body weight change (ΔBW) factor as a measure of possible compound toxicity. The results are depicted in Tables 3 and 3a.
# Next, compound 26A was evaluated in a xenograft study of acute myeloid leukemia (MV-4-11), alone or in a combinational treatment with Cytarabine in vivo (Table 3b; FIG. 6). Compound 26A was tested in two doses (50 and 25 mg/kg) and administered twice a day (BID); Cytarabine was administered at dose of 50 mg/kg three times in a week (TIW). During 15 days of compound administration dose-dependent anti-cancer activity of compound 26A (administered alone) was shown. Tumor growth inhibition reached −82% and −77%, respectively.
SMILES,"IC50 ([1]; Homo sapiens, MOLM16, 72 h) [nM]",inhibition at 1 µM [2] [%],inhibition at 1 µM [4] [%],"IC50 ([6]; Homo sapiens, MV4-11, 72 h) [nM]","IC50 ([7]; Homo sapiens, HepG2, 72 h) [nM]",inhibition at 1 µM [8] [%],inhibition at 1 µM [3] [%],IC50 [9] [nM],further results
N[C@@H]1CCN(c2nc3c([N+](=O)[O-])c(Br)c(Br)cc3n2C2CCC2)C1 [Example 1DC],–,–,–,–,–,–,–,–,IC50 ([1]; 72 hours): 160 nM; Pim-1 % INH (1 μM) [2]: >95%; Flt3wt % INH (1 μM) [3]: 52%; DYRK1A % INH (1 μM) [4]: >95%; IC50 ([5]; 72 hours): 2000 nM; IC50 ([6]; 72 hours): 200 nM; IC50 ([7]; 72 hours): 1000 nM
CCn1c(NCCN)nc2c([N+](=O)[O-])c(Br)c(Br)cc21 [Example 1AL],–,–,–,–,–,–,–,2420,CDK2/E % INH (1 μM) [8]: <5%; Pim-1 % INH (1 μM) [2]: >95%; Flt3wt % INH (1 μM) [3]: <5%; DYRK1A % INH (1 μM) [4]: 49%; IC50 [10]: 5300 nM; Pim-3 % INH (1 μM) [11]: >95%; Pim-2 % INH (1 μM) [12]: 42%; IC50 ([5]; 72 hours): 5300 nM; IC50 [13]: 2300 nM; IC50 ([6]; 72 hours): 2200 nM; IC50 ([7]; 72 hours): 1400 nM
"CC(C)n1c(N2C[C@H]3C[C@@H]2CN3)nc2c([N+](=O)[O-])c(Br)c(Br)cc21 [Example 22AE, 5,6-dibromo-2-[(1R,4R)-2,5-diazabicyclo[2.2.1]heptan-2-yl]-4-nitro-1-(propan-2-yl)-1H-1,3-benzodiazole]",2800,76,95,2700,> 10000,–,–,–,–
"CC(C)n1c(N2CCNCC2)nc2c([N+](=O)[O-])c(C(F)(F)F)c(Br)cc21 [Example 9B, 6-bromo-4-nitro-2-(piperazin-1-yl)-1-(propan-2-yl)-5-(trifluoromethyl)-1H-1,3-benzodiazole]",7290,59,33,5900,2700,–,–,–,–
"NC(=O)Cn1c(N2CCNCC2)nc2c([N+](=O)[O-])c(Br)c(Br)cc21 [Example 2L, 2-[5,6-dibromo-4-nitro-2-(piperazin-1-yl)-1H-1,3-benzodiazol-1-yl]acetamide]",3100,67,–,6100,–,–,–,–,–
CC(C)n1c(N2CCC[C@H](N)C2)nc2c([N+](=O)[O-])c(Br)c(Br)cc21 [Example 1AP],–,–,–,–,–,–,–,1820,CDK2/E % INH (1 μM) [8]: 13%; Pim-1 % INH (1 μM) [2]: >95%; Flt3wt % INH (1 μM) [3]: 56%; TGI (tumor growth inhibition) ([14]; 150 mg/Kg QD): 99%; ΔBW (body weight change) ([14]; 150 mg/Kg QD): 11.7%; TGI (tumor growth inhibition) ([14]; doses as in Table 3): exceeding 97%; DYRK1A % INH (1 μM) [4]: 70%; IC50 [10]: 2400 nM; Pim-3 % INH (1 μM) [11]: 93%; Pim-2 % INH (1 μM) [12]: 80%; IC50 ([5]; 72 hours): 2400 nM; IC50 [13]: 1300 nM; IC50 ([6]; 72 hours): 300 nM; IC50 ([7]; 72 hours): 900 nM
CCn1c(N2CCNCC2C)nc2c([N+](=O)[O-])c(Br)c(Br)cc21 (stereo not shown) [Example 1AD],–,> 95,72,500,600,26,18,1420,"IC50 ([10]; Homo sapiens, SW480): 700 nM; inhibition at 1 µM [11]: > 95%; inhibition at 1 µM [12]: 52%; IC50 ([5]; Homo sapiens, 72 h): 500 nM; IC50 ([13]; Homo sapiens, JeKo-1): 400 nM"

# The next lines start with results.
"IC50 ([1]; Homo sapiens, MOLM16, 72 h) [nM]",inhibition at 1 µM [2] [%],inhibition at 1 µM [4] [%],"IC50 ([6]; Homo sapiens, MV4-11, 72 h) [nM]","IC50 ([7]; Homo sapiens, HepG2, 72 h) [nM]",inhibition at 1 µM [8] [%],inhibition at 1 µM [3] [%],SMILES,IC50 [9] [nM],further results
1500,> 95,18,1300,–,–,–,"NCCn1c(N2CC[C@H](N)C2)nc2c([N+](=O)[O-])c(Br)c(Br)cc21 [Example 3B, (3S)-1-[1-(2-aminoethyl)-5,6-dibromo-4-nitro-1H-1,3-benzodiazol-2-yl]pyrrolidin-3-amine]",–,–
1900,> 95,–,2300,6300,20,< 5,"NCCCn1c(N2CC[C@@H](N)C2)nc2c([N+](=O)[O-])c(Br)c(Br)cc21 [Example 3A, (3R)-1-[1-(3-aminopropyl)-5,6-dibromo-4-nitro-1H-1,3-benzodiazol-2-yl]pyrrolidin-3-amine]",–,–
300,> 95,34,1500,1000,46,< 5,CC(C)n1c(N2CCC(N)CC2)nc2c(C#N)c(Br)c(Br)cc21 [Example 1DT],–,–
–,82,46,1300,1700,< 5,11,"CCn1c(N2CCNCC2)nc2c(C#N)c(Br)c(Br)cc21 [Example 8A, 5,6-dibromo-1-ethyl-2-(piperazin-1-yl)-1H-1,3-benzodiazole-4-carbonitrilehydrochloride]",770,"IC50 ([10]; Homo sapiens, SW480): 4700 nM; inhibition at 1 µM [11]: 92%; inhibition at 1 µM [12]: 14%; IC50 ([5]; Homo sapiens, 72 h): 4800 nM; IC50 ([13]; Homo sapiens, JeKo-1): 1400 nM"
300,> 95,–,5100,–,48,8,CN[C@@H]1CCN(c2nc3c(C#N)c(Br)c(Br)cc3n2C(C)C)C1 [Example 1DW],–,–
1500,> 95,95,2100,2900,50,< 5,CCn1c(NC2CCC(N)CC2)nc2c(C#N)c(Br)c(Br)cc21 (stereo not shown) [Example 1DV],–,–
